Measured values taken from the kinase profiling compilation of Christmann-Franck et al. (2016).
One block for each molecule: values may come before it.

Legend:
Assay in all cases: radiometric filter-binding kinase assay
[1] = target: MKNK2 (human) (UniProt Q9HBH9)
[2] = target: MAPKAPK2 (human) (UniProt P49137)
[3] = target: EPHB2 (human) (UniProt P29323)
[4] = target: MAPK8 (human) (UniProt P45983)
[5] = target: PAK4 (human) (UniProt O96013)
[6] = target: RPS6KA1 KD1 KD2 (human) (UniProt Q15418)
[7] = target: PIM1 (human) (UniProt P11309)
[8] = target: NEK2 (human) (UniProt P51955)
[9] = target: MAPK14 (human) (UniProt Q16539)
[10] = target: DYRK1A (human) (UniProt Q13627)
[11] = tested on: RPS6KB1 (human), P23443 [T412E]
[12] = target: MARK3 (human) (UniProt P27448)
[13] = target: JAK2 JH1 JH2 (human) (UniProt O60674)
[14] = target: MAPK3 (human) (UniProt P27361)
[15] = target: IRAK4 (human) (UniProt Q9NWZ3)
[16] = target: IKBKB (human) (UniProt O14920)
[17] = target: MKNK1 (human) (UniProt Q9BUB5)
[18] = target: NTRK1 (human) (UniProt P04629)
[19] = target: IKBKE (human) (UniProt Q14164); conditions: compound 10.0 µM
[20] = target: STK3 (human) (UniProt Q13188)
[21] = target: MAP3K11 (human) (UniProt Q16584)
[22] = target: NUAK1 (human) (UniProt O60285)
[23] = target: STK11 CAB39 STRADA (human) (UniProt Q9Y376+Q7RTN6+Q15831)
[24] = target: MARK1 (human) (UniProt Q9P0L2)
[25] = target: MARK2 (human) (UniProt Q7KZI7)
[26] = target: DYRK3 (human) (UniProt O43781)
[27] = target: NEK6 (human) (UniProt Q9HC98)
[28] = target: CHEK2 (human) (UniProt O96017)
[29] = target: TTK (human) (UniProt P33981)
[30] = tested on: AKT1 (human), P31749 [S473D]
[31] = target: MAPK9 (human) (UniProt P45984)
[32] = target: CSNK1D (human) (UniProt P48730)
[33] = target: MAP2K1 (human) (UniProt Q02750)
[34] = target: CaMK1 (human) (UniProt Q14012)
[35] = target: TBK1 (human) (UniProt Q9UHD2)

MARK3 (human), sequence (P27448 whole entry, looked up): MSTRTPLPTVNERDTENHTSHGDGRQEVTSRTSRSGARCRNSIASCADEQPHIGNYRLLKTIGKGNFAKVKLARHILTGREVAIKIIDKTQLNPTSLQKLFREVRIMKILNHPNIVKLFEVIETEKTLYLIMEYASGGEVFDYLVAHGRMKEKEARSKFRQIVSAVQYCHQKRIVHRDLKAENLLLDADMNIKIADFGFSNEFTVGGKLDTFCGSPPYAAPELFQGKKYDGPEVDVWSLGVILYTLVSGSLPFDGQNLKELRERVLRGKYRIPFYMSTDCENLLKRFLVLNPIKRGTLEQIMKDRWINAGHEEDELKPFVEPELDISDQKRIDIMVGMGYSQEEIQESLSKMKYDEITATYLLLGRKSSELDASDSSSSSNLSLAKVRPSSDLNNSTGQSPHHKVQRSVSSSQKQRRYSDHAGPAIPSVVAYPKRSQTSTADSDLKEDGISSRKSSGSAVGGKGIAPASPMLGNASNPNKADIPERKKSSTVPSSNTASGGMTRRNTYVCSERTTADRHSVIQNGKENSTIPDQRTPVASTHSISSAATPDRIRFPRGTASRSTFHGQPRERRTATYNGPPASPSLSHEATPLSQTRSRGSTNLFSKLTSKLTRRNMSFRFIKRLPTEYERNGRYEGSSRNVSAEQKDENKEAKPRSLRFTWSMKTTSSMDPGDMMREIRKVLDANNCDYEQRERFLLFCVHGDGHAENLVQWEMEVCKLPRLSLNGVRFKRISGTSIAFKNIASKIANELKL
MKNK2 (human), sequence (Q9HBH9 whole entry, looked up): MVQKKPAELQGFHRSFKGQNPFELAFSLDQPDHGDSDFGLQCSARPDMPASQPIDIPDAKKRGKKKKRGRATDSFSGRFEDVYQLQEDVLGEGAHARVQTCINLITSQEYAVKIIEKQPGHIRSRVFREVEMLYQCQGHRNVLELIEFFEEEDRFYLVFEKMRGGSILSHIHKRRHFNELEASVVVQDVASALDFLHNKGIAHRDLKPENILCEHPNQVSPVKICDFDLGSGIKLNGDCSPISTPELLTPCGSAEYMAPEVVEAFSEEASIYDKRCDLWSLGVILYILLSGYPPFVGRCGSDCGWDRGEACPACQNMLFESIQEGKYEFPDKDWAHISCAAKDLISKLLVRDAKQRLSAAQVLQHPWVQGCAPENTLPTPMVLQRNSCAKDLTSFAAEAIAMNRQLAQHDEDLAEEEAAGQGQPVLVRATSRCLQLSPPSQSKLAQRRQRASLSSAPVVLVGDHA
NUAK1 (human), sequence (O60285 whole entry, looked up): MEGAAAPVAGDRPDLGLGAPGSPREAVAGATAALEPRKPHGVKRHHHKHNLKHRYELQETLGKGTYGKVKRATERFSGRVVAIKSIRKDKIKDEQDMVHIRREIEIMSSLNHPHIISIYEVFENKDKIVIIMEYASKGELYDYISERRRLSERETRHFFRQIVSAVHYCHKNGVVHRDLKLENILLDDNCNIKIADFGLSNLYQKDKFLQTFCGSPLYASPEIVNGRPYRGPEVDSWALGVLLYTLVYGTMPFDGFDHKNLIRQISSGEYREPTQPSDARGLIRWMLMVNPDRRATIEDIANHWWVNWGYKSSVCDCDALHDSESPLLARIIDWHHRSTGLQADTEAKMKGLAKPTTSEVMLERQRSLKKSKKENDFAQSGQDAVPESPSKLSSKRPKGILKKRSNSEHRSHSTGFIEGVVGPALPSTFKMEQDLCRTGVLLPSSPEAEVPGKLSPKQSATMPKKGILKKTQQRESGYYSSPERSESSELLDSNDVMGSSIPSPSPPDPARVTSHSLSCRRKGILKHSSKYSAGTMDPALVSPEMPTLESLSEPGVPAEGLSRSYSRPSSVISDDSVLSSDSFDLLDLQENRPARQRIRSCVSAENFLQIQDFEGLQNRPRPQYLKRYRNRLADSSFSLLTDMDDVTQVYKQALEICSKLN
TTK (human), sequence (P33981 whole entry, looked up): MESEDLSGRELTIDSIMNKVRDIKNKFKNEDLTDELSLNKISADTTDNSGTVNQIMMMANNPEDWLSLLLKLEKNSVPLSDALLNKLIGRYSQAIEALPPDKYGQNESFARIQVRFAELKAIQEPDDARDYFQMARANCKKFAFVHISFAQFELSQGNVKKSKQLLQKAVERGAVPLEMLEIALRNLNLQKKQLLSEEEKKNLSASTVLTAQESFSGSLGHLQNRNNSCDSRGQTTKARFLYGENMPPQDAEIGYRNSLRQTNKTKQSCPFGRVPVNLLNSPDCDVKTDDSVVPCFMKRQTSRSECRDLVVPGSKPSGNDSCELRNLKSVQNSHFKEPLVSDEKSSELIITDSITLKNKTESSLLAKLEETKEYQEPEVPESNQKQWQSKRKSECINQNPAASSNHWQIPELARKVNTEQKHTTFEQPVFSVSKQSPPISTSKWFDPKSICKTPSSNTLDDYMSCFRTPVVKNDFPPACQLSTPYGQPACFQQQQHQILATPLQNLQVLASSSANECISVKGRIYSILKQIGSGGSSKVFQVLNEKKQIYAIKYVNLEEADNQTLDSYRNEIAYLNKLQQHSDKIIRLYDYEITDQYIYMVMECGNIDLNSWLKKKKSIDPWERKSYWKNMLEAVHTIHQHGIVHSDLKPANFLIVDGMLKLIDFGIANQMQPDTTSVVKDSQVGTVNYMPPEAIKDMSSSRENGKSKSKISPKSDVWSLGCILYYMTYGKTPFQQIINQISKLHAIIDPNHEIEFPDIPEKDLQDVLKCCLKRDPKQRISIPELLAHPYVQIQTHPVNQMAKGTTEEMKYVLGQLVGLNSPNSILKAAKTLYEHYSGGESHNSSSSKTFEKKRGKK
PIM1 (human), sequence (P11309 whole entry, looked up): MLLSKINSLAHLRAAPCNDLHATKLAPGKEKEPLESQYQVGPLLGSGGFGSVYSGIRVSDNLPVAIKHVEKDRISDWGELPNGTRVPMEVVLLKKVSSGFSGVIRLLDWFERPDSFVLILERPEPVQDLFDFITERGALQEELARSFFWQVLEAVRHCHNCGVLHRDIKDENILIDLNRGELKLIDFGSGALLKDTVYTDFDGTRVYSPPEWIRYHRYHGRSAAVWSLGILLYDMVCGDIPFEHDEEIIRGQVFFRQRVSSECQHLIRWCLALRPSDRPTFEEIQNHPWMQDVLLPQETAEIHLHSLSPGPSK
MAPK9 (human), sequence (P45984 whole entry, looked up): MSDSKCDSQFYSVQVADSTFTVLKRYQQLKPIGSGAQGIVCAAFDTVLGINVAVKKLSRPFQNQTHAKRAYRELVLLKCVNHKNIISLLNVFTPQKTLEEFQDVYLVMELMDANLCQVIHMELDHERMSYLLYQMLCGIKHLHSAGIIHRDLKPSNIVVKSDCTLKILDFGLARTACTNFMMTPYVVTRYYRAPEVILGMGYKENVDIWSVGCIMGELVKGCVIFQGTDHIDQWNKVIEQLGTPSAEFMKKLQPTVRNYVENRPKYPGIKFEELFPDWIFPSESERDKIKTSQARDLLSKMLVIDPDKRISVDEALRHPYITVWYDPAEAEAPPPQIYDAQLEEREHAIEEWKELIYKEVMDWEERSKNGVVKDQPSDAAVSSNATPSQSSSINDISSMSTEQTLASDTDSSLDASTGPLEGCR
MAPKAPK2 (human), sequence (P49137 whole entry, looked up): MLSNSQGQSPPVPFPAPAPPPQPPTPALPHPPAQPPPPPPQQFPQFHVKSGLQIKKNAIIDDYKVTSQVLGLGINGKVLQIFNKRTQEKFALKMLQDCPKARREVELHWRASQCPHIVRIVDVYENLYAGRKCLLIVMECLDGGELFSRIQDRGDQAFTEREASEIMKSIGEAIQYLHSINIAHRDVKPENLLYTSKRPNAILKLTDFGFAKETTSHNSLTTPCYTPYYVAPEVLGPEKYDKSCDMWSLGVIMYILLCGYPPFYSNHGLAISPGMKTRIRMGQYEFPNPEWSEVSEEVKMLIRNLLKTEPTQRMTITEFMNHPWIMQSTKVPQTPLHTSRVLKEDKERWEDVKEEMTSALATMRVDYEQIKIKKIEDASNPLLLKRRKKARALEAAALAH
NEK6 (human), sequence (Q9HC98 whole entry, looked up): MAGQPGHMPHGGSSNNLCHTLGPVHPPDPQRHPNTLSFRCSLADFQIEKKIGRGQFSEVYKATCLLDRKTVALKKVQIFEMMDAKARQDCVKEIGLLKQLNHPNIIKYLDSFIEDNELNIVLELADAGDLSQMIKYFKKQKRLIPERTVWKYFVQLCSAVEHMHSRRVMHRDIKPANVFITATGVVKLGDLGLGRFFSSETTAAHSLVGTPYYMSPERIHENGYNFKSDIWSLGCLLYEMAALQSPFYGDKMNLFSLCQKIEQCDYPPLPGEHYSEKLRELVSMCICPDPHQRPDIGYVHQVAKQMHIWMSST
NTRK1 (human), sequence (P04629 whole entry, looked up): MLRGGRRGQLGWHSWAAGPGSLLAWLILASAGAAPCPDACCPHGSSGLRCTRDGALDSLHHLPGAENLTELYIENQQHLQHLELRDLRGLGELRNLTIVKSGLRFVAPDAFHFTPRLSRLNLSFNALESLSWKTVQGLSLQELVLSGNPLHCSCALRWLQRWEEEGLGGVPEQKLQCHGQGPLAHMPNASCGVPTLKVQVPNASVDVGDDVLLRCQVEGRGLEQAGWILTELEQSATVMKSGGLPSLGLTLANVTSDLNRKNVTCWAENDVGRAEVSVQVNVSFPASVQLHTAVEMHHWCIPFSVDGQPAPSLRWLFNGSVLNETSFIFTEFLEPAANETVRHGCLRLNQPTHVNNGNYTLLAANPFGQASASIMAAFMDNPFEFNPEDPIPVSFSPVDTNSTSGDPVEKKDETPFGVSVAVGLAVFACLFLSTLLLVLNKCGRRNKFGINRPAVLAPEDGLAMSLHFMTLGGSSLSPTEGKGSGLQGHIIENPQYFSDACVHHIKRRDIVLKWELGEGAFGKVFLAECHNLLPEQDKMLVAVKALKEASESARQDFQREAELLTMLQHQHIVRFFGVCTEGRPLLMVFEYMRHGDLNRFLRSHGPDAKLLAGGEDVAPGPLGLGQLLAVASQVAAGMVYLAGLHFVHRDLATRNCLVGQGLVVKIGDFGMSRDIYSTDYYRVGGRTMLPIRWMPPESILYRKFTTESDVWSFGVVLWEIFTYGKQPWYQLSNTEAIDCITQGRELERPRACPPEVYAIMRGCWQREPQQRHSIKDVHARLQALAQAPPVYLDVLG

residual activity ([1]; compound 10.0 µM): 104%
residual activity ([2]; compound 10.0 µM): 82%
residual activity ([2]; compound 100.0 µM): 80%
residual activity ([3]; compound 10.0 µM): 116%
residual activity ([4]; compound 10.0 µM): 92%
residual activity ([4]; compound 100.0 µM): 78%
residual activity ([5]; compound 10.0 µM): 90%
residual activity ([6]; compound 10.0 µM): 76%
residual activity ([6]; compound 100.0 µM): 77%
residual activity ([7]; compound 10.0 µM): 87%
residual activity ([8]; compound 10.0 µM): 77%
residual activity ([8]; compound 100.0 µM): 82%
residual activity ([9]; compound 10.0 µM): 101%
residual activity ([9]; compound 100.0 µM): 80%
residual activity ([10]; compound 10.0 µM): 97%
residual activity ([10]; compound 100.0 µM): 90%
residual activity ([11]; compound 10.0 µM): 92%
residual activity ([11]; compound 100.0 µM): 71%
residual activity ([12]; compound 10.0 µM): 91%
residual activity ([13]; compound 10.0 µM): 101%
residual activity ([14]; compound 10.0 µM): 102%
residual activity ([15]; compound 10.0 µM): 86%
residual activity ([16]; compound 10.0 µM): 96%
residual activity ([17]; compound 10.0 µM): 97%
residual activity ([18]; compound 10.0 µM): 103%
residual activity [19]: 85%
residual activity ([20]; compound 10.0 µM): 104%
residual activity ([21]; compound 10.0 µM): 73%
residual activity ([22]; compound 10.0 µM): 97%
residual activity ([23]; compound 10.0 µM): 81%
residual activity ([24]; compound 10.0 µM): 96%
residual activity ([25]; compound 10.0 µM): 93%
residual activity ([26]; compound 10.0 µM): 99%
residual activity ([27]; compound 10.0 µM): 107%
residual activity ([27]; compound 100.0 µM): 85%
residual activity ([28]; compound 10.0 µM): 100%
residual activity ([29]; compound 10.0 µM): 87%
residual activity ([30]; compound 10.0 µM): 95%
residual activity ([30]; compound 100.0 µM): 88%
residual activity ([31]; compound 10.0 µM): 88%
residual activity ([32]; compound 10.0 µM): 99%
residual activity ([32]; compound 100.0 µM): 91%
residual activity ([33]; compound 10.0 µM): 89%
residual activity ([33]; compound 100.0 µM): 99%
residual activity ([34]; compound 10.0 µM): 74%
residual activity ([35]; compound 10.0 µM): 94%
Compound: Cc1ccc2c(c1)C(=O)[C@@]1(O)CCN(c3ccccc3)C1=N2

residual activity ([1]; compound 1.0 µM): 106%
residual activity ([1]; compound 10.0 µM): 115%
residual activity ([2]; compound 1.0 µM): 98%
residual activity ([3]; compound 1.0 µM): 104%
residual activity ([3]; compound 10.0 µM): 62%
residual activity ([4]; compound 1.0 µM): 97%
residual activity ([4]; compound 10.0 µM): 102%
residual activity ([5]; compound 1.0 µM): 93%
residual activity ([5]; compound 10.0 µM): 46%
residual activity ([6]; compound 1.0 µM): 101%
residual activity ([6]; compound 10.0 µM): 95%
residual activity ([7]; compound 1.0 µM): 96%
residual activity ([7]; compound 10.0 µM): 87%
residual activity ([8]; compound 1.0 µM): 99%
residual activity ([8]; compound 10.0 µM): 92%
residual activity ([9]; compound 1.0 µM): 100%
residual activity ([9]; compound 10.0 µM): 101%
residual activity ([10]; compound 1.0 µM): 85%
residual activity ([10]; compound 10.0 µM): 48%
residual activity ([11]; compound 1.0 µM): 100%
residual activity ([11]; compound 10.0 µM): 98%
residual activity ([12]; compound 1.0 µM): 90%
residual activity ([12]; compound 10.0 µM): 69%
residual activity ([13]; compound 1.0 µM): 104%
residual activity ([13]; compound 10.0 µM): 60%
residual activity ([14]; compound 1.0 µM): 107%
residual activity ([14]; compound 10.0 µM): 125%
residual activity ([15]; compound 1.0 µM): 68%
residual activity ([15]; compound 10.0 µM): 28%
residual activity ([16]; compound 1.0 µM): 100%
residual activity ([16]; compound 10.0 µM): 93%
residual activity ([17]; compound 1.0 µM): 97%
residual activity ([17]; compound 10.0 µM): 77%
residual activity ([18]; compound 1.0 µM): 90%
residual activity ([18]; compound 10.0 µM): 30%
residual activity [19]: 109%
residual activity ([20]; compound 1.0 µM): 90%
residual activity ([20]; compound 10.0 µM): 53%
residual activity ([21]; compound 1.0 µM): 89%
residual activity ([21]; compound 10.0 µM): 37%
residual activity ([22]; compound 1.0 µM): 75%
residual activity ([22]; compound 10.0 µM): 30%
residual activity ([23]; compound 1.0 µM): 91%
residual activity ([23]; compound 10.0 µM): 81%
residual activity ([24]; compound 1.0 µM): 93%
residual activity ([24]; compound 10.0 µM): 67%
residual activity ([25]; compound 1.0 µM): 97%
residual activity ([26]; compound 1.0 µM): 111%
residual activity ([26]; compound 10.0 µM): 109%
residual activity ([27]; compound 1.0 µM): 107%
residual activity ([27]; compound 10.0 µM): 93%
residual activity ([28]; compound 1.0 µM): 74%
residual activity ([28]; compound 10.0 µM): 35%
residual activity ([29]; compound 1.0 µM): 100%
residual activity ([29]; compound 10.0 µM): 80%
residual activity ([30]; compound 1.0 µM): 115%
residual activity ([30]; compound 10.0 µM): 102%
residual activity ([31]; compound 1.0 µM): 106%
residual activity ([31]; compound 10.0 µM): 96%
residual activity ([32]; compound 1.0 µM): 96%
residual activity ([32]; compound 10.0 µM): 81%
residual activity ([33]; compound 1.0 µM): 92%
residual activity ([33]; compound 10.0 µM): 88%
residual activity ([34]; compound 1.0 µM): 98%
residual activity ([34]; compound 10.0 µM): 70%
residual activity ([35]; compound 1.0 µM): 99%
residual activity ([35]; compound 10.0 µM): 107%
Compound: NC(=O)c1c(NC(=O)C2CC2)sc2c1CCCC2
